Measurements published in PubChem BioAssay AID1845200 (Molecular Pharmacology Branch, DTP, NCI, 2023).
Where “and” joins values, the source holds several entries; their conditions need not be identical. Identical values can stand only once. Calls of active or inactive are those of the source. The calls were made as follows: active = viability on the fitted dose curve at most 10% of control; inactive = the rest.

Test system: ASPS-1 complex tumor spheroids, viability
Experiment: Anticancer human tumor ASPS-1 cell line growth inhibition;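 also: spheroids exposed to agents for 7 days after 3 days of growth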;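 as to viability, T/C: 100% = DMSO vehicle treated spheroids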
Conditions: for viability, T/C: stronger effect = lower value
Method in brief: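 Single agents and combinations were tested on spheroids built from tumor cells plus HUVEC and hMSC, at half-log dilutions starting at or near clinical Cmax, else 10 microM; final DMSO 0.25% (v/v).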

Cc1sc2c(c1C)C(c1ccc(Cl)cc1)=NC(CC(=O)Nc1ccc(O)cc1)c1nnc(C)n1-2 (centres undefined)
viability, T/C (compound 0.00949 µM): 102% and 110% and 107%
viability, T/C (compound 0.03 µM): 103% and 111% and 108%
viability, T/C (compound 0.0949 µM): 103% and 111% and 109%
viability, T/C (compound 0.3 µM): 108% and 105% and 100%
viability, T/C (compound 0.949 µM): 97.8% and 101% and 94.3%
viability, T/C (compound 3 µM): 90.6% and 87.9% and 83.7%
IC50 (curve of compound): > 3 µM

Cc1cc(C)c(CNC(=O)c2cc(-c3ccc(CN4CCOCC4)cc3)cc3c2cnn3C2CCCC2)c(=O)[nH]1
viability, T/C (compound 0.0316 µM): 103% and 100% and 101%
viability, T/C (compound 0.1 µM): 103% (2×) and 102%
viability, T/C (compound 0.316 µM): 103% and 92.5% and 99.4%
viability, T/C (compound 1 µM): 105% and 93.1% and 101%
viability, T/C (compound 3.16 µM): 96.7% and 94.2% and 93.3%
viability, T/C (compound 10 µM): 79.3% and 80.4% and 80.8%
IC50 (curve of compound): > 10 µM

Cc1sc2c(c1C)C(c1ccc(Cl)cc1)=NC(CC(=O)Nc1ccc(O)cc1)c1nnc(C)n1-2 (centres undefined) + CC[C@@]1(O)C(=O)OCc2c1cc1n(c2=O)Cc2cc3c(CN(C)C)c(O)ccc3nc2-1
IC50 (curve of first compound, second compound 0.003 µM): > 3 µM
IC50 (curve of first compound, second compound 0.00949 µM): > 3 µM
IC50 (curve of first compound, second compound 0.03 µM): > 3 µM
IC50 (curve of first compound, second compound 0.0949 µM): > 3 µM
IC50 (curve of first compound, second compound 0.3 µM): 0.55 µM
viability, T/C (second compound 0.003 µM, first compound 0.00949 µM): 105%
viability, T/C (second compound 0.003 µM, first compound 0.03 µM): 111%
viability, T/C (second compound 0.003 µM, first compound 0.0949 µM): 106%
viability, T/C (second compound 0.003 µM, first compound 0.3 µM): 107%
viability, T/C (second compound 0.003 µM, first compound 0.949 µM): 94.4%
viability, T/C (second compound 0.003 µM, first compound 3 µM): 84.2%
viability, T/C (second compound 0.00949 µM, first compound 0.00949 µM): 114%
outcome (second compound 0.00949 µM, first compound 0.03 µM): inactive
viability, T/C (second compound 0.00949 µM, first compound 0.0949 µM): 118%
viability, T/C (second compound 0.00949 µM, first compound 0.3 µM): 109%
viability, T/C (second compound 0.00949 µM, first compound 0.949 µM): 97.8%
viability, T/C (second compound 0.00949 µM, first compound 3 µM): 88.5%
viability, T/C (second compound 0.03 µM, first compound 0.00949 µM): 100%
viability, T/C (second compound 0.03 µM, first compound 0.03 µM): 105%
viability, T/C (second compound 0.03 µM, first compound 0.0949 µM): 102%
viability, T/C (second compound 0.03 µM, first compound 0.3 µM): 94.4%
viability, T/C (second compound 0.03 µM, first compound 0.949 µM): 89.6%
viability, T/C (second compound 0.03 µM, first compound 3 µM): 77.4%
viability, T/C (second compound 0.0949 µM, first compound 0.00949 µM): 64.2%
viability, T/C (second compound 0.0949 µM, first compound 0.03 µM): 71.7%
viability, T/C (second compound 0.0949 µM, first compound 0.0949 µM): 77.2%
viability, T/C (second compound 0.0949 µM, first compound 0.3 µM): 71.2%
viability, T/C (second compound 0.0949 µM, first compound 0.949 µM): 66.9%
viability, T/C (second compound 0.0949 µM, first compound 3 µM): 58.8%
viability, T/C (second compound 0.3 µM, first compound 0.00949 µM): 52.1%
viability, T/C (second compound 0.3 µM, first compound 0.03 µM): 55.2%
viability, T/C (second compound 0.3 µM, first compound 0.0949 µM): 58.7%
viability, T/C (second compound 0.3 µM, first compound 0.3 µM): 55.3%
viability, T/C (second compound 0.3 µM, first compound 0.949 µM): 44.5%
viability, T/C (second compound 0.3 µM, first compound 3 µM): 33.7%
